Measurements as given in paper PMC9376960, “Ruthenium(II)–Tris-pyrazolylmethane Complexes Inhibit Cancer Cell Growth by Disrupting Mitochondrial Calcium Homeostasis” (Journal of Medicinal Chemistry, 2022).

What was measured:
[1] = Octanol/water partition coefficient, shake-flask, UV-vis; format: physicochemical
Method: Partition coefficients (Pow); IUPAC: […] A stock solution of the selected ruthenium compound (ca. 2 mg) was prepared by first adding MeOH (50 μL, to help solubilization), followed by octanol-saturated water (2.5 mL). The solution was diluted with octanol-saturated water (ca. 1:3 v/v ratio, cRu ≈ 10^-4 M, so that 1.5 ≤ A ≤ 2.0 at λmax), and its UV-vis spectrum was recorded (Aaq^0). An aliquot of the solution (Vaq = 1.2 mL) was transferred into a test tube, and water-saturated octanol (Vorg = Vaq = 1.2 mL) was added. […] The UV-vis spectrum of the aqueous phase was recorded (Aaq^f), and the partition coefficient was calculated as Pow = ([…], where […] are the absorbances in the aqueous phase before and after partition with the organic phase, respectively.[118] For 1, an inverse procedure was followed, starting from a solution of the compound in water-saturated octanol. The partition coefficient was calculated as Pow = Aorg^f/(Aorg^0 - Aorg^f), where Aorg^0 and Aorg^f are the absorbances in the organic phase before and after partition with the aqueous phase, respectively. The wavelength of the maximum absorption of each compound (280-380 nm range) was used for UV-vis quantitation. The procedure was repeated three times for each sample (from the same stock solution); the results are given as mean ± standard deviation (Table 2).

[2] = pH of aqueous solution over time; format: physicochemical; settings: 10^–3 M H2O solution
Method: Reactants and solvents were purchased from Alfa Aesar, Merck, Strem, or TCI Chemicals and were of the highest purity available. Tris(1-pyrazolyl)methane (tpm) was prepared according to the published procedure.[105] Reactions were conducted under a N2 atmosphere using standard Schlenk techniques, and all products were stored in air once isolated. All compounds are >95% pure by elemental analysis. Solvents were used as received unless otherwise stated. Toluene and diethyl ether were dried with the solvent purification system mBraun MB SPS5, while methanol was distilled from calcium hydride and isopropanol from magnesium. IR spectra of solid samples were recorded on an Agilent Cary630 FTIR spectrometer. IR spectra were processed with Spectragryph software.[106] NMR spectra were recorded at 298 K on a JEOL JNM-ECZ500R instrument equipped with a Royal HFX Broadband probe. Chemical shifts (expressed in parts per million) are referenced to the residual solvent peaks (^1H, ^13C)[107] or external standard (^31P to H3PO4). ^1H and ^13C{^1H} NMR spectra were assigned with the assistance of ^1H–^13C (gs-HSQC and gs-HMBC) correlation experiments.[108] Elemental analyses were performed on a Vario MICRO cube instrument (Elementar). Conductivity measurements were performed at 25 °C using an XS COND 8 instrument (cell constant = 1.0 cm^–1).[109],[110] pH measurements were performed with an Orion pH meter equipped with a Hamilton glass pH electrode. ESI-Q/ToF flow injection analysis was carried out using a 1200 Infinity HPLC (Agilent Technologies), coupled to a Jet Stream ESI interface (Agilent) with a Quadrupole-Time-of-Flight tandem mass spectrometer 6530 Infinity Q-TOF (Agilent Technologies).

| log Pow [1] | pH(24h) ([2]; 24 h) | pH(48h) ([2]; 48 h) | pH(t0) ([2]; t0) | Substance |
| --- | --- | --- | --- | --- |
| –0.20 ± 0.05 |  |  |  | [RuCl(κ^3-tpm)(PPh3){CNCH2P(O)(OEt2)2}]Cl [compound 9] |
| –0.15 ± 0.03 | 6.66 | 6.36 | 6.78 | [RuCl(κ^3-tpm)(PPh3){NCHN(Me)(CH)2}]Cl [compound 3] |
